Test systems include BT-549 breast; T-47D breast; LOX IMVI melanoma; SK-OV-3 ovarian; HOP-92 NSCLC; SN12C renal; OVCAR-5 ovarian; EKVX NSCLC; SF-295 CNS; MALME-3M melanoma.
What all share (assay): NCI anticancer screen, dose series, 48 h

Here are results for 14 compounds from PubChem BioAssay (NCI).

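Interpolation was linear, between the two tested concentrations surrounding the appropriate level; five concentrations were tested over 48 hours in 96-well plates. The concentration for 50% growth inhibition is given as GI50. At the TGI there is no net growth.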

Regarding `C=CCOc1ccccc1C1(O)c2ccccc2C2=NCCCN21` (centres undefined), the TGI with BT-549 breast, in the assay on T-47D breast, in the assay on LOX IMVI melanoma, in the assay with SK-OV-3 ovarian, with HOP-92 NSCLC and in the assay with SN12C renal was more than 100 µM each time. Also, the TGI with OVCAR-5 ovarian is more than 100 µM; in the assay with EKVX NSCLC, more than 100 µM; with SF-295 CNS it was 71.6 µM.
For the compound `O=C(Nc1nnc(-c2c(Cl)c(Cl)c(Cl)c(Cl)c2-c2nc3cc(C(=O)c4ccccc4)ccc3[nH]2)o1)c1ccc(Cl)cc1`, the TGI is more than 100 µM with BT-549 breast; more than 100 µM with T-47D breast; more than 100 µM in the assay on LOX IMVI melanoma; more than 100 µM in the assay on SK-OV-3 ovarian; more than 100 µM in the assay with HOP-92 NSCLC; 53 µM in the assay on SN12C renal. The TGI in the assay on OVCAR-5 ovarian is more than 100 µM; in the assay on EKVX NSCLC it was more than 100 µM; in the assay with SF-295 CNS, 42.4 µM.
For the compound `COC(=O)[C@@H]1CC(C(CN)c2cn(C(=O)OC(C)(C)C)c3ccccc23)C(=O)N1C(=O)OC(C)(C)C` (some centres undefined), the TGI in the assay on BT-549 breast was more than 100 µM; in the assay with T-47D breast, more than 100 µM; in the assay with MALME-3M melanoma, 54.1 µM; with LOX IMVI melanoma, 30.5 µM; with SN12C renal, 32.9 µM; in the assay on OVCAR-5 ovarian it was 84.2 µM. The TGI came out at 53.8 µM with EKVX NSCLC and 45.2 µM in the assay with SF-295 CNS.
As to `CCCC1(CCC)c2cc(/C=N\O)ccc2-c2ccc(-c3ccc(C(C)(C)C)cc3)cc21`, the TGI was more than 100 µM with T-47D breast; more than 100 µM with MALME-3M melanoma; more than 100 µM in the assay on LOX IMVI melanoma; more than 100 µM in the assay on SK-OV-3 ovarian; more than 100 µM in the assay on HOP-92 NSCLC; 53.5 µM in the assay with SN12C renal. In addition, the TGI in the assay with OVCAR-5 ovarian, in the assay on EKVX NSCLC and in the assay on SF-295 CNS was more than 100 µM throughout.
Take `COc1ccc(-n2c(=O)n(-c3ccccc3)c(=O)n2-c2ccc(OC)cc2)cc1`: the TGI in the assay with T-47D breast, in the assay on MALME-3M melanoma, with LOX IMVI melanoma, in the assay on SK-OV-3 ovarian, in the assay on HOP-92 NSCLC and with SN12C renal was more than 100 µM throughout. For the same compound, the TGI in the assay with OVCAR-5 ovarian, with EKVX NSCLC and in the assay on SF-295 CNS was more than 100 µM throughout.
In the case of `CC/C=C/C[C@H](O)[C@H]1C[C@H]2O[C@H](CC(=O)OC)C[C@H]2O1`, the TGI in the assay on BT-549 breast, in the assay on T-47D breast, in the assay with MALME-3M melanoma, with LOX IMVI melanoma, in the assay on SK-OV-3 ovarian and in the assay with SN12C renal was more than 100 µM throughout. The TGI with OVCAR-5 ovarian, in the assay on EKVX NSCLC and in the assay with SF-295 CNS was more than 100 µM in each case.
Take `CCn1c(=O)c2nc(SC)sc2n(-c2ccccc2)c1=O`: the TGI in the assay with T-47D breast, in the assay with MALME-3M melanoma, with LOX IMVI melanoma, in the assay with SK-OV-3 ovarian, in the assay on HOP-92 NSCLC and with SN12C renal was more than 100 µM in each case. Besides, the TGI in the assay on OVCAR-5 ovarian and in the assay with SF-295 CNS was more than 100 µM in each case.
For `ClCc1cccc(CSc2ncnc3c2ncn3Cc2cccc(CCl)c2)c1`, the GI50 was 1.32 µM with BT-549 breast; 2.31 µM with T-47D breast; 1.4 µM in the assay with LOX IMVI melanoma; 2.3 µM in the assay with SK-OV-3 ovarian; 1.64 µM in the assay on HOP-92 NSCLC; 2.02 µM in the assay on SN12C renal. Moreover, the figures for the GI50 in the assay with OVCAR-5 ovarian, with EKVX NSCLC and in the assay on SF-295 CNS were 1.84 µM, 10.1 µM and 2.13 µM, respectively. Moreover, the TGI with BT-549 breast amounted to 2.83 µM; in the assay with T-47D breast, 5.12 µM; with LOX IMVI melanoma it was 2.74 µM; with SK-OV-3 ovarian it was 4.97 µM; with HOP-92 NSCLC, 3.32 µM; with SN12C renal, 7.33 µM. Also, the TGI is 3.99 µM in the assay on OVCAR-5 ovarian, 24.6 µM with EKVX NSCLC and 5.59 µM with SF-295 CNS.
Turning to `CSCCCNC(=O)c1csc(-c2csc(CCNC(=O)CNC(=O)CNC(=O)OC(C)(C)C)n2)n1`, the TGI with BT-549 breast, in the assay on MALME-3M melanoma, in the assay on LOX IMVI melanoma, in the assay on SK-OV-3 ovarian, in the assay on HOP-92 NSCLC and with SN12C renal was more than 100 µM throughout. In addition, the TGI with OVCAR-5 ovarian, with EKVX NSCLC and in the assay on SF-295 CNS was more than 100 µM in each case.
For the compound `N#Cc1c(-c2ccc(Cl)cc2)c2c(N=Nc3c(O)ccc4ccccc34)[nH]nc2[nH]c1=O`, the TGI amounted to 0.619 µM in the assay with BT-549 breast; 0.944 µM in the assay on MALME-3M melanoma; 0.439 µM in the assay with LOX IMVI melanoma; 1.58 µM with SK-OV-3 ovarian; 0.865 µM with HOP-92 NSCLC; 2.05 µM with SN12C renal. Further, the TGI with OVCAR-5 ovarian was 2.73 µM; with EKVX NSCLC, 2.19 µM; in the assay on SF-295 CNS it was 1.18 µM.
With `CNC(=O)OC(COC)CN1CCN(c2ccccc2C)CC1` (centres undefined), the TGI in the assay on T-47D breast, with MALME-3M melanoma, in the assay with LOX IMVI melanoma, in the assay with SK-OV-3 ovarian, in the assay on HOP-92 NSCLC and in the assay with SN12C renal was more than 10 µM throughout. The TGI in the assay on EKVX NSCLC and in the assay with SF-295 CNS was more than 10 µM in each case.
Take `Cc1ccc(NC(=O)/C(=N/N(C)C)C(C2OC(=O)c3ccccc32)[N+](=O)[O-])cc1` (centres undefined): the TGI in the assay on BT-549 breast, in the assay with T-47D breast, in the assay with LOX IMVI melanoma, with SK-OV-3 ovarian, with HOP-92 NSCLC and with SN12C renal was more than 100 µM in each case. The TGI in the assay on OVCAR-5 ovarian and in the assay on SF-295 CNS was more than 100 µM throughout.
Turning to `COc1cc2ccc1OCc1cccc(n1)COc1ccc(cc1OC)C=NCCNCCNCCN=C2`, the TGI in the assay with BT-549 breast, in the assay with T-47D breast, in the assay with MALME-3M melanoma, in the assay with LOX IMVI melanoma, in the assay on SK-OV-3 ovarian and in the assay on HOP-92 NSCLC was more than 100 µM in each case. In addition, the TGI in the assay on SN12C renal, with OVCAR-5 ovarian and in the assay with EKVX NSCLC was more than 100 µM each time.
With `NC(=Nc1cccc(Cl)c1)c1ccccc1N`, the TGI with BT-549 breast, in the assay on MALME-3M melanoma, in the assay with LOX IMVI melanoma, in the assay on SK-OV-3 ovarian, in the assay on OVCAR-5 ovarian and with EKVX NSCLC was more than 100 µM in each case. This compound also had a TGI in the assay on SF-295 CNS of more than 100 µM.
